According to ChEMBL document CHEMBL1201862, “PubChem BioAssay data set” (2004):
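Following 48 hours of exposure in 96-well plates, responses at five concentrations were used to interpolate endpoints linearly. At the GI50, growth is halved.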 Activity calls are given as the source filed them. Rule as the data show it: active = GI50 up to about 1.1 µM and inactive = higher.

Assays:
Assay in all cases: inhibition of tumour cell growth, NCI panel, 48 h
SK-MEL-5 = test system: SK-MEL-5
SW-620 = test system: SW-620
Hs-578T = test system: Hs-578T
SK-MEL-2 = test system: SK-MEL-2
UO-31 = test system: UO-31
PC-3 = test system: PC-3
MDA-MB-435 = test system: MDA-MB-435
786-0 = test system: 786-0
OVCAR-4 = test system: OVCAR-4
SF-539 = test system: SF-539
OVCAR-5 = test system: OVCAR-5
BT-549 = test system: BT-549
A549 = test system: A549
T47D = test system: T47D
MCF7 = test system: MCF7
OVCAR-8 = test system: OVCAR-8
NCI-H460 = test system: NCI-H460
MDA-MB-231 = test system: MDA-MB-231
HOP-92 = test system: HOP-92

Row | SMILES | GI50 (SK-MEL-5) | GI50 (SW-620) | GI50 (Hs-578T) | GI50 (SK-MEL-2) | GI50 (UO-31) | GI50 (PC-3) | GI50 (MDA-MB-435) | GI50 (786-0) | GI50 (OVCAR-4) | GI50 (SF-539) | GI50 (OVCAR-5) | GI50 (BT-549) | GI50 (A549) | GI50 (T47D) | GI50 (MCF7) | GI50 (OVCAR-8) | GI50 (NCI-H460) | GI50 (MDA-MB-231) | GI50 (HOP-92)
1 | Cc1ccc(-c2cc(C(F)(F)F)nn2-c2ccc(S(N)(=O)=O)cc2)cc1 [CELECOXIB] | 14.8 µM (inactive) | 16.9 µM (inactive) | 18.5 µM (inactive) | 16.1 µM (inactive) | 14.8 µM (inactive) | 13.4 µM (inactive) | 17.5 µM (inactive) | 37.1 µM (inactive) | 12.4 µM (inactive) | 18.1 µM (inactive) | 19.7 µM (inactive) | 18.5 µM (inactive) | 14.4 µM (inactive) | 16.8 µM (inactive) | 17.5 µM (inactive) | 19.7 µM (inactive) | 15.8 µM (inactive) | 15.6 µM (inactive) | –
2 | C/C(=N\c1ccc(N(C)C)cc1)c1ccccc1 | 15.9 µM (inactive) | 17.9 µM (inactive) | 22.1 µM (inactive) | 11.2 µM (inactive) | 17.8 µM (inactive) | 23.4 µM (inactive) | – | 19.8 µM (inactive) | 25.1 µM (inactive) | 56 µM (inactive) | > 100 µM (inactive) | 18.9 µM (inactive) | 27.9 µM (inactive) | 21.7 µM (inactive) | 21.9 µM (inactive) | 35.4 µM (inactive) | 81.1 µM (inactive) | 18.3 µM (inactive) | –
3 | CC1(C)CN=C(Nc2ccc(F)c(F)c2)S1 | > 100 µM (inactive) | > 100 µM (inactive) | > 100 µM (inactive) | > 100 µM (inactive) | > 100 µM (inactive) | > 100 µM (inactive) | > 100 µM (inactive) | > 100 µM (inactive) | > 100 µM (inactive) | > 100 µM (inactive) | > 100 µM (inactive) | > 100 µM (inactive) | > 100 µM (inactive) | > 100 µM (inactive) | > 100 µM (inactive) | > 100 µM (inactive) | – | > 100 µM (inactive) | 31.4 µM (inactive)
4 | CCOC(=O)c1ccc(NCC#CCN2CCOCC2)cc1 | 26.9 µM (inactive) | > 100 µM (inactive) | > 100 µM (inactive) | > 100 µM (inactive) | > 100 µM (inactive) | > 100 µM (inactive) | > 100 µM (inactive) | > 100 µM (inactive) | > 100 µM (inactive) | > 100 µM (inactive) | 19.9 µM (inactive) | > 100 µM (inactive) | 83.9 µM (inactive) | > 100 µM (inactive) | 66.4 µM (inactive) | – | – | > 100 µM (inactive) | > 100 µM (inactive)
5 | COc1ccc(C2=CC(C(C)=C(C(N)=O)C(N)=O)C=C(c3ccc(Br)cc3)C2)c(OC)c1 (configuration not stated) | > 100 µM (inactive) | > 100 µM (inactive) | 63.1 µM (inactive) | > 100 µM (inactive) | 39.9 µM (inactive) | 50.5 µM (inactive) | > 100 µM (inactive) | > 100 µM (inactive) | > 100 µM (inactive) | – | > 100 µM (inactive) | > 100 µM (inactive) | > 100 µM (inactive) | 39.1 µM (inactive) | > 100 µM (inactive) | > 100 µM (inactive) | > 100 µM (inactive) | > 100 µM (inactive) | 31.8 µM (inactive)
6 | CN1CCN(c2ccc3nc(C4=C(O)C(=O)c5c(nc(CO)n5C)C4=O)[nH]c3n2)CC1 | – | > 100 µM (inactive) | > 100 µM (inactive) | 55.1 µM (inactive) | > 100 µM (inactive) | > 100 µM (inactive) | > 100 µM (inactive) | > 100 µM (inactive) | > 100 µM (inactive) | 20.9 µM (inactive) | > 100 µM (inactive) | > 100 µM (inactive) | > 100 µM (inactive) | 61.4 µM (inactive) | – | > 100 µM (inactive) | > 100 µM (inactive) | > 100 µM (inactive) | > 100 µM (inactive)
7 | COc1ccc(-n2cnc3c(N)nc(N)nc32)cc1 | > 100 µM (inactive) | > 100 µM (inactive) | 25.6 µM (inactive) | 54.2 µM (inactive) | 65 µM (inactive) | > 100 µM (inactive) | > 100 µM (inactive) | > 100 µM (inactive) | > 100 µM (inactive) | 49.5 µM (inactive) | > 100 µM (inactive) | > 100 µM (inactive) | 93.3 µM (inactive) | > 100 µM (inactive) | 90.8 µM (inactive) | > 100 µM (inactive) | – | 57.8 µM (inactive) | > 100 µM (inactive)
8 | O=C1CCCC(=O)N1n1c(Cc2ccc(Cl)cc2)n[nH]c1=O | > 100 µM (inactive) | > 100 µM (inactive) | > 100 µM (inactive) | > 100 µM (inactive) | > 100 µM (inactive) | > 100 µM (inactive) | > 100 µM (inactive) | > 100 µM (inactive) | > 100 µM (inactive) | > 100 µM (inactive) | > 100 µM (inactive) | > 100 µM (inactive) | > 100 µM (inactive) | > 100 µM (inactive) | > 100 µM (inactive) | > 100 µM (inactive) | > 100 µM (inactive) | > 100 µM (inactive) | –
9 | O=c1c2cc(S(=O)(=O)O)ccc2nc(COc2ccc(Oc3ccc(Cl)cc3Cl)cc2)n1-c1ccc(Oc2ccc(Cl)cc2)cc1Cl | 18.6 µM (inactive) | 21.5 µM (inactive) | 20 µM (inactive) | 16.5 µM (inactive) | 13.9 µM (inactive) | 26.7 µM (inactive) | 19.7 µM (inactive) | 20 µM (inactive) | 25.2 µM (inactive) | 16.7 µM (inactive) | 23.2 µM (inactive) | 17.1 µM (inactive) | 19.3 µM (inactive) | 33.1 µM (inactive) | 20.7 µM (inactive) | 19 µM (inactive) | 16.6 µM (inactive) | – | 12.8 µM (inactive)
10 | CC(C(=O)N1C(=O)N(C(=O)C(C)C(O)c2ccccc2)C(c2ccccc2)C1c1ccccc1)C(O)c1ccccc1 (configuration not stated) | > 10 µM (inactive) | 28.7 µM (inactive) | 11.1 µM (inactive) | 10.2 µM (inactive) | 5.33 µM (inactive) | – | 15 µM (inactive) | 26.1 µM (inactive) | 13.4 µM (inactive) | 6.25 µM (inactive) | – | 12.6 µM (inactive) | 4.85 µM (inactive) | 6.47 µM (inactive) | 4.43 µM (inactive) | 7.98 µM (inactive) | 4.25 µM (inactive) | 16.6 µM (inactive) | 5.92 µM (inactive)
11 | C=CCOCn1ccc(N)nc1=O | > 100 µM (inactive) | > 100 µM (inactive) | > 100 µM (inactive) | – | > 100 µM (inactive) | > 100 µM (inactive) | > 100 µM (inactive) | > 100 µM (inactive) | – | > 100 µM (inactive) | – | > 100 µM (inactive) | > 100 µM (inactive) | > 100 µM (inactive) | > 100 µM (inactive) | > 100 µM (inactive) | – | > 100 µM (inactive) | –
12 | COC(=O)/C=c1/c2ccccc2n2nc3ccccc3c12 | 31.6 µM (inactive) | 65 µM (inactive) | 52 µM (inactive) | 74.6 µM (inactive) | 62.2 µM (inactive) | > 100 µM (inactive) | 33 µM (inactive) | 27.6 µM (inactive) | 23 µM (inactive) | 26.6 µM (inactive) | > 100 µM (inactive) | > 100 µM (inactive) | 65.9 µM (inactive) | > 100 µM (inactive) | 42.6 µM (inactive) | > 100 µM (inactive) | 43.9 µM (inactive) | 16.4 µM (inactive) | –
13 | COc1ccc2nc3cc(Cl)ccc3c(NCCCNCCCNc3c4ccc(Cl)cc4nc4ccc(OC)cc34)c2c1 | 0.0247 µM (active) | 0.0131 µM (active) | – | 0.0404 µM (active) | < 0.0236 µM (active) | 0.0241 µM (active) | 0.0374 µM (active) | < 0.01 µM (active) | < 0.01 µM (active) | 0.0157 µM (active) | < 0.0224 µM (active) | 0.21 µM (active) | 0.0132 µM (active) | 0.0625 µM (active) | 0.012 µM (active) | < 0.01 µM (active) | 0.0102 µM (active) | < 0.01 µM (active) | 0.0719 µM (active)
14 | C=C[C@]1(C)CC(=O)C(C(C)C=O)[C@]12C(=O)Oc1cccc(C)c1C2=O (some centres not stated) | 13.2 µM (inactive) | 11.8 µM (inactive) | 16.3 µM (inactive) | 17.1 µM (inactive) | 15.5 µM (inactive) | 13.3 µM (inactive) | 15.2 µM (inactive) | 16.4 µM (inactive) | 17.2 µM (inactive) | 16.2 µM (inactive) | 16.6 µM (inactive) | 14.3 µM (inactive) | 18 µM (inactive) | 16.4 µM (inactive) | 16.5 µM (inactive) | 16.1 µM (inactive) | 16.6 µM (inactive) | 17.6 µM (inactive) | –
15 | Nc1nc2c(C(=O)O)c3ccc([N+](=O)[O-])cc3c(=O)n2c2ccccc12 | 24.7 µM (inactive) | 39 µM (inactive) | 23.8 µM (inactive) | 24.9 µM (inactive) | 29.8 µM (inactive) | 24.5 µM (inactive) | 27.2 µM (inactive) | 20.6 µM (inactive) | 31 µM (inactive) | – | 31 µM (inactive) | 27.9 µM (inactive) | 26.2 µM (inactive) | 20.4 µM (inactive) | 16.2 µM (inactive) | 18.7 µM (inactive) | 30.1 µM (inactive) | 24.9 µM (inactive) | –
16 | O=Cc1ccc(Oc2c3ccccc3nc3ccccc23)cc1 | 11.5 µM (inactive) | – | 2.53 µM (inactive) | – | – | 6.34 µM (inactive) | 2.45 µM (inactive) | 2.32 µM (inactive) | 4.63 µM (inactive) | 1.76 µM (inactive) | 4.29 µM (inactive) | 14.8 µM (inactive) | 18.8 µM (inactive) | 3.66 µM (inactive) | 4.42 µM (inactive) | 5.75 µM (inactive) | 16 µM (inactive) | 2.29 µM (inactive) | 4.74 µM (inactive)
